We go through 19 molecules from patent publication US20080207728A1, “BICYCLIC ACYLTRYPTOPHANOLS” (priority 2006, published 2008).

In the experiment the target is T1, human FSH receptor (Homo sapiens, UniProt P23945).
T1 construct: expressed in transfected cells; host or cells: CHO cells (hFSHR clone 16)
T1 sequence (P23945 18-695): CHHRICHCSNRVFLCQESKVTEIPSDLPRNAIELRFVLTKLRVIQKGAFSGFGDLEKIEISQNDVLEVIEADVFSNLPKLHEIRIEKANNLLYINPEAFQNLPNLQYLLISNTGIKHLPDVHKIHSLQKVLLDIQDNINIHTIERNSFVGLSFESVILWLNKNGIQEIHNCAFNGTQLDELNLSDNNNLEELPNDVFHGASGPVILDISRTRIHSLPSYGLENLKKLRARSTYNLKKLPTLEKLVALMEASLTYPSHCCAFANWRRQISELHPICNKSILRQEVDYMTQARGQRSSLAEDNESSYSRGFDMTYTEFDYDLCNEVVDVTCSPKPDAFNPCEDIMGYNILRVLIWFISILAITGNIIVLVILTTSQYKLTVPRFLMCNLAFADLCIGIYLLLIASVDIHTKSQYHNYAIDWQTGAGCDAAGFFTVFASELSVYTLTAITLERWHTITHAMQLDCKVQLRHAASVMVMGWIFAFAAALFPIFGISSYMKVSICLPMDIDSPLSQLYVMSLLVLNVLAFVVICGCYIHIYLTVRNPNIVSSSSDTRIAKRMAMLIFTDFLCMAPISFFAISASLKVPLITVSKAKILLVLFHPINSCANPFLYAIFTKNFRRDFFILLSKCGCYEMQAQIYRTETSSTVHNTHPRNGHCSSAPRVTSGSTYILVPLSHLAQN
As to the kind of experiment: HTRF assay for measuring cAMP in cells (FSH antagonism). It is filed as cell-based. The following applies: hFSHR clone 16 cells (CHO cells stably transfected with the human FSH receptor), in the presence of 1e-9 mol/l hFSH, 37° C. for 2 h, read-out: IC50 (FSH-antagonistic effect in the HTRF assay). Here is the method: HTRF Assay for Measuring cAMP in Cells
The method is based on a competitive immunoassay between native cAMP, which has been produced by the cells, and cAMP which is labelled with XL665. The tracer binding was visualized by a monoclonal antibody, anti-cAMP labelled with cryptate [HTRF=homogeneous time-resolved fluorescence].
The specific signal is inversely proportional to the cAMP concentration of the samples employed.
The 665 nm/620 nm fluorescence ratio was evaluated.
The following material was used: 96-well plates for the tissue culture, 96-well plates with black edge and black base (e.g. Fluotrac 600 from Greiner), 96-well plates for the substance dilutions of polypropylene and cAMP Femtomolar (4000 wells Kit, CIS Bio International # 62AM1PEC).
The following reagents were used: BSA (bovine serum albumin) Fraction V protease-free, IBMX (3-isobutyl-1-methylxanthine), hFSH (human follicle stimulating hormone), Triton X-100 analytical grade, potassium fluoride analytical grade, G 418 (Geneticin) and Accutase.
Buffer 1 (washing and testing buffer) contained PBS, 1 mM CaCl2, 1 mM MgCl2, 0.2% glucose; 0.1% BSA, 1 mM IBMX.
Buffer 2 (2× lysis buffer) contained 1% Triton X-100 in PBS (without CaCl2 and MgCl2).
Buffer 3 (assay buffer) contained 50 mM potassium phosphate buffer (pH 7.0); 800 mM potassium fluoride; 0.2% BSA (always added fresh).
On day 1, the cells were seeded in 96-well plates (3×10^4 cells per well hFSHR clone 16 cells (CHO cells stably transfected with the human FSH receptor in 150 μl of medium).
The next day, test substance dilutions were made up. For this purpose, all the substances were diluted in ice-cold buffer 1 (with or without hFSH), and the substance dilutions were placed on ice until applied to the cells.
The cell supernatant was then aspirated off, and the cells were washed 2× with 200 μl of buffer 1. The cells were treated with 60 μl of the appropriate substance concentrations at 37° C. for 2 h. The cells were then lysed with 60 μl of buffer 2 (put onto the supernatant) (on a plate shaker at RT for 30 min).
The test conjugates (XL-665 and anti-cAMP cryptate) were diluted in buffer 3 in accordance with the manufacturers' information. The actual mixture for measurement was pipetted into a black 96-well plate (in each case 15 μl of the cell lysate diluted with 35 μl of buffer 1; firstly 25 μl of XL-665 conjugate were pipetted and, after 10 min, 25 μl of the anti-cAMP cryptate were added). This is followed by incubation at RT for 90 minutes. The measurement was carried out in a PheraStar (BMG).
Tissue Culture Conditions
Dose-effect curve (hFSH) for the human receptor: 1e-8, 3e-9, 1 e-9, 3e-10, 1 e-10, 3e-11, 1e-11, 3e-12 mol/l.
The test substances were employed in suitable dilutions in the absence (test for agonism) and in the presence of 1e-9 mol/l hFSH.
The values of the well ratio were averaged and then entered directly in SigmaPlot versus the concentrations. The maximum and minimum values were determined for each plate, and half the difference is to be regarded as IC50.

Where two headings read alike, the source gives them in different places.

In the case of `CNC(=O)c1cccc(C#Cc2cc3c(c(C(=O)N[C@@H](CO)Cc4c[nH]c5ccccc45)c2)OC(C)(C)C=C3)c1` [Example 11, 2,2-Dimethyl-6-(3-methylcarbamoyl-phenylethynyl)-2H-chromene-8-carboxylic acid [(R)-1-hydroxymethyl-2-(1H-indol-3-yl)-ethyl]-amide], the half-maximal inhibitory concentration (IC50) (Table 1) is 30 nM.
For the molecule `O=C(N[C@@H](CO)Cc1c[nH]c2ccccc12)c1cc(-c2ccc3c(c2)OCO3)cc2c1OCC2` [Example 23, 5-Benzo[1,3]dioxol-5-yl-2,3-dihydro-benzofuran-7-carboxylic acid [(R)-1-hydroxymethyl-2-(1H-indol-3-yl)-ethyl]-amide], the IC50 (Table 1) came to 450 nM.
Consider `O=C(N[C@@H](CO)Cc1c[nH]c2ccccc12)c1cc(-c2ccc3ccccc3c2)cc2c1OCC2` [Example 43, 5-Naphthalen-2-yl-2,3-dihydro-benzofuran-7-carboxylic acid [(R)-1-hydroxymethyl-2-(1H-indol-3-yl)-ethyl]-amide], for which the IC50 (Table 1) stood at 4000 nM.
`O=C(N[C@@H](CO)Cc1c[nH]c2ccccc12)c1cc(-c2ccc(O)cc2)cc2c1OCC2` [Example 51, 5-(4-Hydroxy-phenyl)-2,3-dihydro-benzofuran-7-carboxylic acid [(R)-1-hydroxymethyl-2-(1H-indol-3-yl)-ethyl]-amide]: the IC50 (Table 1) came out at 700 nM.
Still for that read-out and setting: as for `CC(=O)c1cccc(-c2cc3c(c(C(=O)N[C@@H](CO)Cc4c[nH]c5ccccc45)c2)OCC3)c1` [Example 56, 5-(3-Acetyl-phenyl)-2,3-dihydro-benzofuran-7-carboxylic acid [(R)-1-hydroxymethyl-2-(1H-indol-3-yl)-ethyl]-amide], the figure is 2000 nM; as for `CNC(=O)c1ccc(-c2cc3c(c(C(=O)N[C@@H](CO)Cc4c[nH]c5ccccc45)c2)OCC3)cc1` [Example 65, 5-(4-Methylcarbamoyl-phenyl)-2,3-dihydro-benzofuran-7-carboxylic acid [(R)-1-hydroxymethyl-2-(1H-indol-3-yl)-ethyl]-amide], 2000 nM.
Same read-out and setting: the same measure for `N#CCc1ccc(-c2cc3c(c(C(=O)N[C@@H](CO)Cc4c[nH]c5ccccc45)c2)OCC3)cc1` [Example 73, 5-(4-Cyanomethyl-phenyl)-2,3-dihydro-benzofuran-7-carboxylic acid [(R)-1-hydroxymethyl-2-(1H-indol-3-yl)-ethyl]-amide]: 2000 nM; for `Cc1cc(C)cc(-c2cc3c(c(C(=O)N[C@@H](CO)Cc4c[nH]c5ccccc45)c2)OCC3)c1` [Example 78, 5-(3,5-Dimethyl-phenyl)-2,3-dihydro-benzofuran-7-carboxylic acid [(R)-1-hydroxymethyl-2-(1H-indol-3-yl)-ethyl]-amide]: 3000 nM.
On the same count and under the same terms, the same measure for `CNC(=O)c1cc(F)cc(-c2cc3c(c(C(=O)N[C@@H](CO)Cc4c[nH]c5ccccc45)c2)OCC3)c1` [Example 82, 5-(3-Fluoro-5-methylcarbamoyl-phenyl)-2,3-dihydro-benzofuran-7-carboxylic acid [(R)-1-hydroxymethyl-2-(1H-indol-3-yl)-ethyl]-amide]: 4000 nM.
Turning to `O=C(NC(CO)Cc1c[nH]c2cc(F)ccc12)c1cc(/C=C/c2ccccc2)cc2c1OCCCC2` (stereo not shown) [Example 83, 7-((E)-Styryl)-2,3,4,5-tetrahydro-benzo[b]oxepine-9-carboxylic acid [2-(6-fluoro-1H-indol-3-yl)-1-hydroxymethyl-ethyl]-amide], for the setting “Table 1”, the IC50 came out at 350 nM.
As for `CNC(=O)c1ccc(C#Cc2cc3c(c(C(=O)NC(CO)Cc4c[nH]c5cc(F)ccc45)c2)OCCCC3)cc1` (stereo not shown) [Example 84, 7-(4-Methylcarbamoyl-phenylethynyl)-2,3,4,5-tetrahydro-benzo[b]oxepine-9-carboxylic acid [2-(6-fluoro-1H-indol-3-yl)-1-hydroxymethyl-ethyl]-amide], the IC50 (Table 1) is 50 nM.
Take `COc1ccccc1C#Cc1cc2c(c(C(=O)N[C@@H](CO)Cc3c[nH]c4ccccc34)c1)OCCO2` [Example 85, 7-(2-Methoxy-phenylethynyl)-2,3-dihydro-benzo[1,4]dioxine-5-carboxylic acid [(R)-1-hydroxymethyl-2-(1H-indol-3-yl)-ethyl]-amide]: where the note is “Table 1”, the IC50 was 200 nM.
The same measure, in the same setting: as for `CNC(=O)c1cc(F)cc(-c2cc3c(c(C(=O)NC(CO)Cc4c[nH]c5cccc(C)c45)c2)OCCCC3)c1` (stereo not shown) [Example 86, 7-(3-Fluoro-5-methylcarbamoyl-phenyl)-2,3,4,5-tetrahydro-benzo[b]oxepine-9-carboxylic acid [2-hydroxy-1-(4-methyl-1H-indol-3-ylmethyl)-ethyl]-amide], the figure is 1500 nM.
Still for that read-out and setting: as for `CNC(=O)c1ccc(-c2cc3c(c(C(=O)NC(CO)Cc4c[nH]c5cccc(F)c45)c2)OC(C)(C)C=C3)cc1Cl` (stereo not shown) [Example 88, 6-(3-Chloro-4-methylcarbamoyl-phenyl)-2,2-dimethyl-2H-chromene-8-carboxylic acid [2-(4-fluoro-1H-indol-3-yl)-1-hydroxymethyl-ethyl]-amide], the figure is 30 nM.
Regarding `CNC(=O)c1ccc(-c2cc3c(c(C(=O)NC(CO)Cc4c[nH]c5ccc(F)cc45)c2)OC(C)(C)C=C3)cc1Cl` (stereo not shown) [Example 89, 6-(3-Chloro-4-methylcarbamoyl-phenyl)-2,2-dimethyl-2H-chromene-8-carboxylic acid [2-(5-fluoro-1H-indol-3-yl)-1-hydroxymethyl-ethyl]-amide], for the setting “Table 2”, the IC50 is 20 nM.
Still for that read-out and setting: the same measure for `CNC(=O)c1cccc(C#Cc2cc3c(c(C(=O)NC(CO)Cc4c[nH]c5cc(F)ccc45)c2)OCCCC3)c1` (stereo not shown) [Example 91, 7-(3-Methylcarbamoyl-phenylethynyl)-2,3,4,5-tetrahydro-benzo[b]oxepine-9-carboxylic acid [2-(6-fluoro-1H-indol-3-yl)-1-hydroxymethyl-ethyl]-amide]: 60 nM; for `O=C(N[C@@H](CO)Cc1c[nH]c2ccccc12)c1cc(-c2ccc(-c3ccccc3)cc2)cc2c1OCCO2` [Example 92, 7-Biphenyl-4-yl-2,3-dihydro-benzo[1,4]dioxine-5-carboxylic acid [(R)-1-hydroxymethyl-2-(1H-indol-3-yl)-ethyl]-amide]: 500 nM.
Still for that read-out and setting: the same measure for `O=C(N[C@@H](CO)Cc1c[nH]c2ccccc12)c1cc(-c2ccc(CO)cc2)cc2c1OCCO2` [Example 96, 7-(4-Hydroxymethyl-phenyl)-2,3-dihydro-benzo[1,4]dioxine-5-carboxylic acid [(R)-1-hydroxymethyl-2-(1H-indol-3-yl)-ethyl]-amide]: 1000 nM; for `CSc1cccc(-c2cc3c(c(C(=O)N[C@@H](CO)Cc4c[nH]c5ccccc45)c2)OCCO3)c1` [Example 100, 7-(3-Methylsulfanyl-phenyl)-2,3-dihydro-benzo[1,4]dioxine-5-carboxylic acid [(R)-1-hydroxymethyl-2-(1H-indol-3-yl)-ethyl]-amide]: 900 nM.
